Experimental data as given in the NIST ThermoML archive (doi:10.1021/je0604481).
Numbers after ± are expanded uncertainties.

Assay: mn = molality of the nth substance listed, in mol/kg
Settings: Liquid; for viscosity: Capillary tube (Ostwald / Ubbelohde) method; for mass density: Constant-volume piezometry

O=S(=O)([O-])[O-].[Mg+2] [magnesium sulfate] + O
Settings	mass density [kg/m3]	viscosity [mPa·s]
348.15 K, 100 kPa, m1 = 2.291	–	1.503 ± 0.024
348.15 K, 101 kPa, m1 = 0.084	984.5 ± 0.61	–
348.15 K, 101 kPa, m1 = 0.261	1004.83 ± 0.62	–
348.15 K, 101 kPa, m1 = 0.469	1028.4 ± 0.64	–
348.15 K, 101 kPa, m1 = 0.841	1069.05 ± 0.67	–
348.15 K, 10000 kPa, m1 = 0.437	–	0.4948 ± 0.0082
348.15 K, 10000 kPa, m1 = 2.291	–	1.514 ± 0.024
348.15 K, 30000 kPa, m1 = 0.437	–	0.5024 ± 0.0083
348.15 K, 30000 kPa, m1 = 2.291	–	1.536 ± 0.025
348.2 K, 100 kPa, m1 = 1.824	–	1.127 ± 0.018
348.2 K, 10000 kPa, m1 = 1.824	–	1.135 ± 0.018
348.2 K, 30000 kPa, m1 = 1.824	–	1.151 ± 0.019
348.23 K, 2118 kPa, m1 = 2.224	1208.2 ± 0.8	–
348.23 K, 8002 kPa, m1 = 2.224	1210.4 ± 0.8	–
348.23 K, 14710 kPa, m1 = 2.224	1212.2 ± 0.8	–
348.23 K, 25300 kPa, m1 = 2.224	1215.7 ± 0.8	–
348.23 K, 30020 kPa, m1 = 2.224	1217.1 ± 0.9	–
348.25 K, 100 kPa, m1 = 0.255	–	0.4399 ± 0.0073
348.25 K, 10000 kPa, m1 = 0.255	–	0.4432 ± 0.0073
348.25 K, 30000 kPa, m1 = 0.255	–	0.4502 ± 0.0075
348.32 K, 100 kPa, m1 = 0.085	–	0.3976 ± 0.0066
348.32 K, 10000 kPa, m1 = 0.085	–	0.4008 ± 0.0067
348.32 K, 30000 kPa, m1 = 0.085	–	0.4066 ± 0.0068
348.35 K, 100 kPa, m1 = 2.623	–	1.849 ± 0.03
348.35 K, 10000 kPa, m1 = 2.623	–	1.863 ± 0.03
348.35 K, 30000 kPa, m1 = 2.623	–	1.889 ± 0.03
348.36 K, 100 kPa, m1 = 0.722	–	0.5831 ± 0.0096
348.36 K, 10000 kPa, m1 = 0.722	–	0.5875 ± 0.0096
348.36 K, 30000 kPa, m1 = 0.722	–	0.5961 ± 0.0098
348.75 K, 100 kPa, m1 = 0.923	–	0.6495 ± 0.011
348.75 K, 10000 kPa, m1 = 0.923	–	0.6548 ± 0.011
348.75 K, 30000 kPa, m1 = 0.923	–	0.6642 ± 0.011
358.95 K, 101 kPa, m1 = 2.224	1200.88 ± 0.75	–
358.95 K, 101 kPa, m1 = 2.535	1228.61 ± 0.77	–
370.1 K, 100 kPa, m1 = 2.291	–	1.068 ± 0.017
370.1 K, 10000 kPa, m1 = 2.291	–	1.078 ± 0.017
370.1 K, 30000 kPa, m1 = 2.291	–	1.099 ± 0.018
370.4 K, 100 kPa, m1 = 0.923	–	0.4894 ± 0.0081
370.4 K, 10000 kPa, m1 = 0.923	–	0.4945 ± 0.0082
370.4 K, 30000 kPa, m1 = 0.923	–	0.5035 ± 0.0083
370.45 K, 100 kPa, m1 = 0.085	–	0.3053 ± 0.0051
370.45 K, 100 kPa, m1 = 0.722	–	0.4386 ± 0.0073
370.45 K, 10000 kPa, m1 = 0.085	–	0.3084 ± 0.0052
370.45 K, 10000 kPa, m1 = 0.722	–	0.4433 ± 0.0073
370.45 K, 30000 kPa, m1 = 0.085	–	0.3144 ± 0.0053
370.45 K, 30000 kPa, m1 = 0.722	–	0.4516 ± 0.0075
370.75 K, 100 kPa, m1 = 2.623	–	1.295 ± 0.021
370.75 K, 10000 kPa, m1 = 2.623	–	1.308 ± 0.021
370.75 K, 30000 kPa, m1 = 2.623	–	1.333 ± 0.022
371.44 K, 100 kPa, m1 = 1.824	–	0.804 ± 0.013
371.44 K, 10000 kPa, m1 = 1.824	–	0.811 ± 0.013
371.44 K, 30000 kPa, m1 = 1.824	–	0.827 ± 0.013
371.9 K, 100 kPa, m1 = 0.437	–	0.3654 ± 0.0061
371.9 K, 10000 kPa, m1 = 0.437	–	0.3694 ± 0.0062
371.9 K, 30000 kPa, m1 = 0.437	–	0.3766 ± 0.0063
372.4 K, 100 kPa, m1 = 0.255	–	0.33 ± 0.0055
372.4 K, 10000 kPa, m1 = 0.255	–	0.3336 ± 0.0056
372.4 K, 30000 kPa, m1 = 0.255	–	0.34 ± 0.0057
373.22 K, 3020 kPa, m1 = 2.535	1220.3 ± 0.8	–
373.22 K, 6610 kPa, m1 = 2.535	1221.6 ± 0.8	–
373.22 K, 14380 kPa, m1 = 2.535	1224.1 ± 0.8	–
373.22 K, 21080 kPa, m1 = 2.535	1226.1 ± 0.9	–
373.22 K, 24710 kPa, m1 = 2.535	1227.4 ± 0.9	–
373.22 K, 29800 kPa, m1 = 2.535	1229 ± 0.9	–
373.24 K, 2275 kPa, m1 = 2.224	1192.8 ± 0.8	–
373.24 K, 7355 kPa, m1 = 2.224	1194.5 ± 0.8	–
373.24 K, 12870 kPa, m1 = 2.224	1196.4 ± 0.8	–
373.24 K, 20420 kPa, m1 = 2.224	1198.9 ± 0.8	–
373.24 K, 29820 kPa, m1 = 2.224	1201.7 ± 0.9	–
394.16 K, 10000 kPa, m1 = 2.623	–	0.963 ± 0.016
394.16 K, 30000 kPa, m1 = 2.623	–	0.985 ± 0.016
396.25 K, 10000 kPa, m1 = 0.923	–	0.377 ± 0.0063
396.25 K, 30000 kPa, m1 = 0.923	–	0.3862 ± 0.0064
397.1 K, 10000 kPa, m1 = 1.824	–	0.605 ± 0.0099
397.1 K, 30000 kPa, m1 = 1.824	–	0.619 ± 0.01
397.14 K, 10000 kPa, m1 = 0.085	–	0.2381 ± 0.0041
397.14 K, 30000 kPa, m1 = 0.085	–	0.2437 ± 0.0042
398.15 K, 5810 kPa, m1 = 2.535	1203.8 ± 0.8	–
398.15 K, 11100 kPa, m1 = 2.535	1205.6 ± 0.8	–
398.15 K, 21700 kPa, m1 = 2.535	1209 ± 0.9	–
398.15 K, 29400 kPa, m1 = 2.535	1211.5 ± 0.9	–
398.19 K, 2452 kPa, m1 = 2.224	1175.3 ± 0.8	–
398.19 K, 7355 kPa, m1 = 2.224	1177.2 ± 0.8	–
398.19 K, 12080 kPa, m1 = 2.224	1178.9 ± 0.8	–
398.19 K, 19850 kPa, m1 = 2.224	1181.7 ± 0.8	–
398.19 K, 26220 kPa, m1 = 2.224	1183.8 ± 0.9	–
398.7 K, 10000 kPa, m1 = 2.291	–	0.774 ± 0.013
398.7 K, 30000 kPa, m1 = 2.291	–	0.792 ± 0.013
398.75 K, 10000 kPa, m1 = 0.437	–	0.2834 ± 0.0048
398.75 K, 30000 kPa, m1 = 0.437	–	0.2901 ± 0.0049
399.24 K, 10000 kPa, m1 = 0.722	–	0.3306 ± 0.0055
399.24 K, 30000 kPa, m1 = 0.722	–	0.3384 ± 0.0057
399.44 K, 10000 kPa, m1 = 0.255	–	0.2566 ± 0.0044
399.44 K, 30000 kPa, m1 = 0.255	–	0.2625 ± 0.0045
422.1 K, 10000 kPa, m1 = 1.824	–	0.477 ± 0.0079
422.1 K, 30000 kPa, m1 = 1.824	–	0.49 ± 0.0081
422.35 K, 10000 kPa, m1 = 0.923	–	0.3 ± 0.0051
422.35 K, 30000 kPa, m1 = 0.923	–	0.3081 ± 0.0052
422.7 K, 10000 kPa, m1 = 0.085	–	0.1945 ± 0.0034
422.7 K, 30000 kPa, m1 = 0.085	–	0.1999 ± 0.0035
423.85 K, 10000 kPa, m1 = 0.255	–	0.2113 ± 0.0037
423.85 K, 30000 kPa, m1 = 0.255	–	0.2169 ± 0.0037
424.13 K, 10000 kPa, m1 = 0.437	–	0.23 ± 0.004
424.13 K, 30000 kPa, m1 = 0.437	–	0.2366 ± 0.0041
428.16 K, 10000 kPa, m1 = 0.722	–	0.2597 ± 0.0044
428.16 K, 30000 kPa, m1 = 0.722	–	0.2673 ± 0.0045
447.16 K, 10000 kPa, m1 = 0.255	–	0.1798 ± 0.0032
447.16 K, 30000 kPa, m1 = 0.255	–	0.1855 ± 0.0033
447.42 K, 10000 kPa, m1 = 0.437	–	0.1966 ± 0.0034
447.42 K, 30000 kPa, m1 = 0.437	–	0.2019 ± 0.0035
448.24 K, 10000 kPa, m1 = 0.085	–	0.1643 ± 0.0029
448.24 K, 30000 kPa, m1 = 0.085	–	0.1694 ± 0.003
